# Tests used:
# Daphnia magna = settings: chronic/long-term; duration: 21 days; reproduction
# Oncorhynchus mykiss = settings: chronic/long-term; duration: 96 days; growth
# Tagia sp. = settings: acute; duration: 14 days; mortality
# Canidae = settings: chronic; duration: 1 years; oral; Dog Other; clinical chemistry
# Apis mellifera = settings: acute, duration: 48 hours, mortality
smiles,measurement,setting,value
CC1(C(=O)Nc2ccc(O)c(Cl)c2Cl)CCCCC1 [Fenhexamid],NOEC,Daphnia magna,1.03 mg/L
same,NOEC,Oncorhynchus mykiss,0.101 mg/L
same,LC50,Tagia sp.,≥ 1000 mg/kg
same,LD50,"Rattus norvegicus; acute, oral, mortality",> 5000 mg/kg-day
same,NOAEL,Rattus norvegicus; reproduction developmental,40.2 mg/kg-day
same,NOAEL,Canidae,19.2 mg/kg-day
same,LC50,"Colinus virginianus; acute, oral, diet, mortality",> 804 mg/kg-day
same,LD50,"Colinus virginianus; acute, oral, mortality",> 2000 mg/kg-day
same,NOEC,Colinus virginianus; reproduction developmental,154 mg/kg-day
same,LD50,Apis mellifera; dermal,> 200 µg/piece
same,LD50,"Apis mellifera; oral, unspecified",> 102 µg/piece

# Reference: EPA's ToxValDB 9.5 (doi:10.2903/j.efsa.2014.3744)
